Read-outs that look alike come from different tables or passages of the source. Blank lines part the entries; values can stand above or below the compound they belong to.
How the values were obtained:
[1] = target: T1, albumin of beef serum (Bos taurus, UniProt P02769); assay: protective effect on protein denaturation from UV rays (method of Silvestrini et al.); format: biochemical; conditions: for inhibition at 50 µM: molar conc. .00005; for inhibition at 200 µM: molar conc. .0002
T1 construct: albumin of beef serum; from tissue; host or cells: beef serum
T1 sequence (P02769 25-607): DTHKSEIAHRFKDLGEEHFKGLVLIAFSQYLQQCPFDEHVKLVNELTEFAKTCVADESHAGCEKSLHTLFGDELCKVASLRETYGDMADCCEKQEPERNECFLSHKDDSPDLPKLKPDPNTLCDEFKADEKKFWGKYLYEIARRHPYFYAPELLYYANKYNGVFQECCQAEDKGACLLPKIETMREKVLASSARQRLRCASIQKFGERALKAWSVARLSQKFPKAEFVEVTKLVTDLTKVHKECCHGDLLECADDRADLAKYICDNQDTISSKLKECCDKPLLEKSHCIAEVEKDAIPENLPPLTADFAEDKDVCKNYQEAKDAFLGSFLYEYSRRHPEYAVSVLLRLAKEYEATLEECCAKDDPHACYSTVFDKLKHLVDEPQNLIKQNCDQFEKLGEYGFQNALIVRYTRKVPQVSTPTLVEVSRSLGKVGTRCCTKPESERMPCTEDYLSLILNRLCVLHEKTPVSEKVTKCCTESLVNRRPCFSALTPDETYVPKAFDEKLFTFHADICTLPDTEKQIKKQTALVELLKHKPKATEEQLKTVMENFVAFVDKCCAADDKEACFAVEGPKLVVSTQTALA
Experimental: The Compounds of formulas I and II were tested under experimental conditions designed to show the protective effect on protein denaturation from UV rays according to the method of Silvestrini et al. (Int. J. Tiss. Reac. 5, 217-225, 1983) which comprises the measurement of the protective action of the compound under examination on the denaturation of the albumin of beef serum submitted to UV rays for 30 minutes.

[2] = system: bilateral senile cataract; assay: preliminary tests on man: cataract therapy for three months, oral or topical; format: in vivo; conditions: 10 patients
Experimental: Preliminary tests on man confirmed the action of Compound II in cataract therapy.
Two groups of 10 patients afflicted by bilateral senile cataract with cortical or subcapsular or cortinuclear localization, in the initial evolutive stage, without fundus alterations and with a distant visus from 5 to 9 tenths (after correction of any refraction error) were treated for three months with Compound II orally (100 mg tablet; 1 tablet, three times a day) and topically (0.1% collyrium; 1 drop in the conjunctival sac of each eye three times a day) respectively.
The effect of the treatment was evaluated by monitoring the variations in the visus, in the refraction error, and in lenticular opacity (by biomicroscopy with a slit lamp and by ophthalmoscopy).

[3] = UV rays for 30 minutes, read-out: % INHIBITION MEAN
[4] = single determinations, UV rays for 30 minutes, read-out: % INHIBITION
[5] = orally, 100 mg tablet three times a day
[6] = topically, 0.1% collyrium, 1 drop in each eye three times a day

inhibition at 250 µM ([1]; molar conc. .00025, UV rays for 30 minutes): 12%
inhibition at 500 µM ([1]; molar conc. .0005, UV rays for 30 minutes): 21%
inhibition at 1000 µM ([1]; molar conc. .001, UV rays for 30 minutes): 42%
inhibition at 2000 µM ([1]; molar conc. .002, UV rays for 30 minutes): 61%
Compound: O=C(O)COc1nn(Cc2ccccc2)c2ccccc12 [Compound I, bendazac lysinate, reference compound]

inhibition at 50 µM [1, 3]: 10%
inhibition at 50 µM [1, 4]: 8 to 13%
inhibition at 100 µM ([1]; molar conc. .0001, UV rays for 30 minutes): 77%
inhibition at 200 µM [1, 3]: 92%
inhibition at 200 µM [1, 4]: 85 to 100%
times as active as Compound I ([1]; relative activity versus Compound I in this test): at least 10 times
Compound: O=C(O)COc1nn(Cc2ccccc2)c2ccc(O)cc12 [Compound II, (5-hydroxy-1-benzyl)-indazolyl-3-oxyacetic acid]
opacity decreased [2, 5]: 6 eyes
opacity increased [2, 5]: 1 eye
opacity remained unchanged [2, 5]: 13 eyes
overall clinical judgement: patients improved [2, 5]: 7 patients
overall clinical judgement: remained unchanged [2, 5]: 2 patients
overall clinical judgement: worsened slightly [2, 5]: one
overall clinical judgement: patients improved greatly ([2]; orally, 100 mg tablet three times a day, part of the 7 improved): 4 patients
mean visus value increased ([2]; orally, 100 mg tablet three times a day, t = 3.58, P < 0.01): 16.79%
opacity decreased [2, 6]: 7 eyes
opacity increased [2, 6]: 2 eyes
opacity remained unchanged [2, 6]: 11 eyes
overall clinical judgement: patients improved [2, 6]: 4 patients
overall clinical judgement: remained unchanged [2, 6]: 5 patients
overall clinical judgement: worsened [2, 6]: one
mean visus value increased ([2]; topically, 0.1% collyrium, 1 drop in each eye three times a day, t = 2.54, P < 0.05): 12.78%
